Laboratory results from PubChem BioAssay AID1963966 (Molecular Pharmacology Branch, DTP, NCI, 2024).

Test system: 935938-334-R-J1-PDC spheroids with HUVEC/MSC, viability
Assay: Anticancer human tumor 935938-334-R-J1-PDC patient-derived small intestine adenocarcinoma cell line growth inhibition [PI3K]
Details: for IC50: curve of first compound; for viability, T/C: stronger effect = lower value
How it was run: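 Tumor cells were combined with HUVEC and MSCs into spheroids, then dosed with PI3K-inhibitor combinations over half-log ranges capped near clinical Cmax or 10 microM.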

[1] = second compound 0.00316 µM, first compound 0.000316 µM
[2] = second compound 0.00316 µM, first compound 0.001 µM
[3] = second compound 0.00316 µM, first compound 0.00316 µM
[4] = second compound 0.00316 µM, first compound 0.01 µM
[5] = second compound 0.00316 µM, first compound 0.0316 µM
[6] = second compound 0.00316 µM, first compound 0.1 µM
[7] = second compound 0.01 µM, first compound 0.000316 µM
[8] = second compound 0.01 µM, first compound 0.001 µM
[9] = second compound 0.01 µM, first compound 0.00316 µM
[10] = second compound 0.01 µM, first compound 0.01 µM
[11] = second compound 0.01 µM, first compound 0.0316 µM
[12] = second compound 0.01 µM, first compound 0.1 µM
[13] = second compound 0.0316 µM, first compound 0.000316 µM
[14] = second compound 0.0316 µM, first compound 0.001 µM
[15] = second compound 0.0316 µM, first compound 0.00316 µM
[16] = second compound 0.0316 µM, first compound 0.01 µM
[17] = second compound 0.0316 µM, first compound 0.0316 µM
[18] = second compound 0.0316 µM, first compound 0.1 µM
[19] = second compound 0.1 µM, first compound 0.000316 µM
[20] = second compound 0.1 µM, first compound 0.001 µM
[21] = second compound 0.1 µM, first compound 0.00316 µM
[22] = second compound 0.1 µM, first compound 0.01 µM
[23] = second compound 0.1 µM, first compound 0.0316 µM
[24] = second compound 0.1 µM, first compound 0.1 µM
[25] = second compound 0.316 µM, first compound 0.000316 µM
[26] = second compound 0.316 µM, first compound 0.001 µM
[27] = second compound 0.316 µM, first compound 0.00316 µM
[28] = second compound 0.316 µM, first compound 0.01 µM
[29] = second compound 0.316 µM, first compound 0.0316 µM
[30] = second compound 0.316 µM, first compound 0.1 µM
[31] = second compound 1 µM, first compound 0.000316 µM
[32] = second compound 1 µM, first compound 0.001 µM
[33] = second compound 1 µM, first compound 0.00316 µM
[34] = second compound 1 µM, first compound 0.01 µM
[35] = second compound 1 µM, first compound 0.0316 µM
[36] = second compound 1 µM, first compound 0.1 µM
[37] = second compound 0.00316 µM, first compound 0.316 µM
[38] = second compound 0.00316 µM, first compound 1 µM
[39] = second compound 0.00316 µM, first compound 3.16 µM
[40] = second compound 0.00316 µM, first compound 10 µM
[41] = second compound 0.01 µM, first compound 0.316 µM
[42] = second compound 0.01 µM, first compound 1 µM
[43] = second compound 0.01 µM, first compound 3.16 µM
[44] = second compound 0.01 µM, first compound 10 µM
[45] = second compound 0.0316 µM, first compound 0.316 µM
[46] = second compound 0.0316 µM, first compound 1 µM
[47] = second compound 0.0316 µM, first compound 3.16 µM
[48] = second compound 0.0316 µM, first compound 10 µM
[49] = second compound 0.1 µM, first compound 0.316 µM
[50] = second compound 0.1 µM, first compound 1 µM
[51] = second compound 0.1 µM, first compound 3.16 µM
[52] = second compound 0.1 µM, first compound 10 µM
[53] = second compound 0.316 µM, first compound 0.316 µM
[54] = second compound 0.316 µM, first compound 1 µM
[55] = second compound 0.316 µM, first compound 3.16 µM
[56] = second compound 0.316 µM, first compound 10 µM
[57] = second compound 1 µM, first compound 0.316 µM
[58] = second compound 1 µM, first compound 1 µM
[59] = second compound 1 µM, first compound 3.16 µM
[60] = second compound 1 µM, first compound 10 µM
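Also: compound exposure lasted seven days before viability was read.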
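For viability, T/C in this document: percent of vehicle DMSO treated spheroid viability so 100% = untreated.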

CC(C)n1nc(-c2ccc3oc(N)nc3c2)c2c(N)ncnc21 + COc1c(OCCCN2CCOCC2)ccc2c3n(c(=NC(=O)c4cnc(N)nc4)nc12)CCN3
IC50 (second compound 0.00316 µM): > 100 nM
IC50 (second compound 0.01 µM): 81.8 nM
IC50 (second compound 0.0316 µM): 26.6 nM
IC50 (second compound 0.1 µM): < 0.316 nM
IC50 (second compound 0.316 µM): < 0.316 nM
IC50 (second compound 1 µM): < 0.316 nM
viability, T/C [1]: 86.9%
viability, T/C [2]: 110%
viability, T/C [3]: 106%
viability, T/C [4]: 99.9%
viability, T/C [5]: 85.3%
viability, T/C [6]: 54.8%
viability, T/C [7]: 94.5%
viability, T/C [8]: 83.2%
viability, T/C [9]: 92.6%
viability, T/C [10]: 89.5%
viability, T/C [11]: 79.6%
viability, T/C [12]: 43.4%
viability, T/C [13]: 83.9%
viability, T/C [14]: 107%
viability, T/C [15]: 92.7%
viability, T/C [16]: 68%
viability, T/C [17]: 50.2%
viability, T/C [18]: 35.1%
viability, T/C [19]: 45.1%
viability, T/C [20]: 59.4%
viability, T/C [21]: 39.2%
viability, T/C [22]: 48.2%
viability, T/C [23]: 36.9%
viability, T/C [24]: 34.8%
viability, T/C [25]: 36.3%
viability, T/C [26]: 38.9%
viability, T/C [27]: 34.5%
viability, T/C [28]: 31.1%
viability, T/C [29]: 42.5%
viability, T/C [30]: 31.1%
viability, T/C [31]: 42.6%
viability, T/C [32]: 37.2%
viability, T/C [33]: 37.1%
viability, T/C [34]: 32.5%
viability, T/C [35]: 26.5%
viability, T/C [36]: 33.4%

CC1(C)CCC(CN2CCN(c3ccc(C(=O)NS(=O)(=O)c4ccc(NCC5CCOCC5)c([N+](=O)[O-])c4)c(Oc4cnc5[nH]ccc5c4)c3)CC2)=C(c2ccc(Cl)cc2)C1 + COc1c(OCCCN2CCOCC2)ccc2c3n(c(=NC(=O)c4cnc(N)nc4)nc12)CCN3
IC50 (second compound 0.00316 µM): > 10000 nM
IC50 (second compound 0.01 µM): > 10000 nM
IC50 (second compound 0.0316 µM): > 10000 nM
IC50 (second compound 0.1 µM): 10000 nM
IC50 (second compound 0.316 µM): < 31.6 nM
IC50 (second compound 1 µM): < 31.6 nM
viability, T/C [5]: 98.6%
viability, T/C [6]: 99.3%
viability, T/C [37]: 92.7%
viability, T/C [38]: 110%
viability, T/C [39]: 84.8%
viability, T/C [40]: 93.1%
viability, T/C [11]: 108%
viability, T/C [12]: 85.6%
viability, T/C [41]: 83.7%
viability, T/C [42]: 66.8%
viability, T/C [43]: 82.4%
viability, T/C [44]: 84.8%
viability, T/C [17]: 67.7%
viability, T/C [18]: 68.6%
viability, T/C [45]: 71.1%
viability, T/C [46]: 68.5%
viability, T/C [47]: 69.5%
viability, T/C [48]: 74%
viability, T/C [23]: 66.5%
viability, T/C [24]: 44.7%
viability, T/C [49]: 56.8%
viability, T/C [50]: 52.2%
viability, T/C [51]: 52.5%
viability, T/C [52]: 47.3%
viability, T/C [29]: 27.1%
viability, T/C [30]: 36.2%
viability, T/C [53]: 30%
viability, T/C [54]: 33.2%
viability, T/C [55]: 33.6%
viability, T/C [56]: 40.1%
viability, T/C [35]: 34.6%
viability, T/C [36]: 39.5%
viability, T/C [57]: 38.9%
viability, T/C [58]: 29.3%
viability, T/C [59]: 34.9%
viability, T/C [60]: 32.6%

CCCS(=O)(=O)Nc1ccc(F)c(C(=O)c2c[nH]c3ncc(-c4ccc(Cl)cc4)cc23)c1F + COc1c(OCCCN2CCOCC2)ccc2c3n(c(=NC(=O)c4cnc(N)nc4)nc12)CCN3
IC50 (second compound 0.00316 µM): 7390 nM
IC50 (second compound 0.01 µM): 7410 nM
IC50 (second compound 0.0316 µM): 6730 nM
IC50 (second compound 0.1 µM): 5380 nM
IC50 (second compound 0.316 µM): < 31.6 nM
IC50 (second compound 1 µM): < 31.6 nM
viability, T/C [5]: 97.3%
viability, T/C [6]: 104%
viability, T/C [37]: 113%
viability, T/C [38]: 132%
viability, T/C [39]: 102%
viability, T/C [40]: 31.2%
viability, T/C [11]: 123%
viability, T/C [12]: 107%
viability, T/C [41]: 96.1%
viability, T/C [42]: 120%
viability, T/C [43]: 115%
viability, T/C [44]: 28.1%
viability, T/C [17]: 95%
viability, T/C [18]: 81.4%
viability, T/C [45]: 85%
viability, T/C [46]: 108%
viability, T/C [47]: 87.9%
viability, T/C [48]: 29.5%
viability, T/C [23]: 61.8%
viability, T/C [24]: 65.5%
viability, T/C [49]: 65.3%
viability, T/C [50]: 89.1%
viability, T/C [51]: 70.6%
viability, T/C [52]: 26.7%
viability, T/C [29]: 39%
viability, T/C [30]: 45.2%
viability, T/C [53]: 51.6%
viability, T/C [54]: 49.3%
viability, T/C [55]: 49.5%
viability, T/C [56]: 31.9%
viability, T/C [35]: 39.2%
viability, T/C [36]: 40.9%
viability, T/C [57]: 39.3%
viability, T/C [58]: 50%
viability, T/C [59]: 50.3%
viability, T/C [60]: 23.9%

C[C@@H](NC(=O)c1ncnc(N)c1Cl)c1ncc(C(=O)Nc2cc(C(F)(F)F)c(Cl)cn2)s1 + COc1c(OCCCN2CCOCC2)ccc2c3n(c(=NC(=O)c4cnc(N)nc4)nc12)CCN3
IC50 (second compound 0.00316 µM): > 10000 nM
IC50 (second compound 0.01 µM): > 10000 nM
IC50 (second compound 0.0316 µM): > 10000 nM
IC50 (second compound 0.1 µM): 6990 nM
IC50 (second compound 0.316 µM): < 31.6 nM
IC50 (second compound 1 µM): < 31.6 nM
viability, T/C [5]: 124%
viability, T/C [6]: 105%
viability, T/C [37]: 116%
viability, T/C [38]: 108%
viability, T/C [39]: 123%
viability, T/C [40]: 82.3%
viability, T/C [11]: 104%
viability, T/C [12]: 122%
viability, T/C [41]: 115%
viability, T/C [42]: 117%
viability, T/C [43]: 101%
viability, T/C [44]: 90%
viability, T/C [17]: 81.3%
viability, T/C [18]: 94.4%
viability, T/C [45]: 96.2%
viability, T/C [46]: 85.4%
viability, T/C [47]: 76.3%
viability, T/C [48]: 69.9%
viability, T/C [23]: 67.5%
viability, T/C [24]: 65.7%
viability, T/C [49]: 73.2%
viability, T/C [50]: 71.2%
viability, T/C [51]: 60.8%
viability, T/C [52]: 44.5%
viability, T/C [29]: 46.3%
viability, T/C [30]: 42.1%
viability, T/C [53]: 38.9%
viability, T/C [54]: 41.8%
viability, T/C [55]: 40.1%
viability, T/C [56]: 42.9%
viability, T/C [35]: 36.8%
viability, T/C [36]: 41.3%
viability, T/C [57]: 40.8%
viability, T/C [58]: 37.3%
viability, T/C [59]: 37.5%
viability, T/C [60]: 34.7%

Cn1ncnc1[C@H]1c2n[nH]c(=O)c3cc(F)cc(c23)N[C@@H]1c1ccc(F)cc1 + COc1c(OCCCN2CCOCC2)ccc2c3n(c(=NC(=O)c4cnc(N)nc4)nc12)CCN3
IC50 (second compound 0.00316 µM): > 100 nM
IC50 (second compound 0.01 µM): > 100 nM
IC50 (second compound 0.0316 µM): > 100 nM
IC50 (second compound 0.1 µM): 8.29 nM
IC50 (second compound 0.316 µM): < 0.316 nM
IC50 (second compound 1 µM): < 0.316 nM
viability, T/C [1]: 90.8%
viability, T/C [2]: 96.6%
viability, T/C [3]: 103%
viability, T/C [4]: 83.3%
viability, T/C [5]: 96.2%
viability, T/C [6]: 92.8%
viability, T/C [7]: 109%
viability, T/C [8]: 106%
viability, T/C [9]: 92.3%
viability, T/C [10]: 82.2%
viability, T/C [11]: 92.4%
viability, T/C [12]: 77.4%
viability, T/C [13]: 77%
viability, T/C [14]: 65.6%
viability, T/C [15]: 90.2%
viability, T/C [16]: 82.2%
viability, T/C [17]: 73.8%
viability, T/C [18]: 76%
viability, T/C [19]: 56%
viability, T/C [20]: 52%
viability, T/C [21]: 57.5%
viability, T/C [22]: 47.2%
viability, T/C [23]: 43.5%
viability, T/C [24]: 50.2%
viability, T/C [25]: 31.2%
viability, T/C [26]: 35.3%
viability, T/C [27]: 34.5%
viability, T/C [28]: 34.6%
viability, T/C [29]: 34.2%
viability, T/C [30]: 35.4%
viability, T/C [31]: 33.1%
viability, T/C [32]: 40.3%
viability, T/C [33]: 37.5%
viability, T/C [34]: 32.7%
viability, T/C [35]: 36%
viability, T/C [36]: 35.1%
